Measurements reported in EP4603105A1, “PHARMACEUTICAL COMPOSITION CONTAINING CYCLIC COMPOUND HAVING SELECTIVE KRAS INHIBITORY EFFECT AGAINST HRAS AND NRAS” (CHUGAI SEIYAKU KABUSHIKI KAISHA, priority 2022, dated 2024).
*1 amine or outer side, *2 acyl side, *3 side chain or, on linkers, in order; H or OH if unused. Where a SMILES comes first, the peptide text is derived from it. Bridges are numbered along the chain shown (N, C = ends). [ ]: non-standard residue; d: D form. The star is where a group is joined. hPhe(3,5-F2-4-CF3) = N[C@@H](CCc1cc(F)c(C(F)(F)F)c(F)c1)C(=O)O; hPhe(3-Cl-4-CF3) = N[C@@H](CCc1ccc(C(F)(F)F)c(Cl)c1)C(=O)O; NPrPhe(4-CF3) = CCCN[C@@H](Cc1ccc(C(F)(F)F)cc1)C(=O)O; NEtPhe(4-CF3) = CCN[C@@H](Cc1ccc(C(F)(F)F)cc1)C(=O)O; NEtAsp = CCN([C@@H](CC(=O)[*:3])C(=O)[*:2])[*:1]; NMeGly(cPent) = CN[C@H](C(=O)O)C1CCCC1; Pro(4,4-F2) = O=C(O)[C@@H]1CC(F)(F)CN1; αMeI = CC[C@H](C)[C@](C)(N)C(=O)O; NMeD = CN[C@@H](CC(=O)O)C(=O)O; NMeL = CN[C@@H](CC(C)C)C(=O)O; NMeNva = CCC[C@H](NC)C(=O)O; Morpholide = C1CN(*)CCO1; NMeA = CN[C@@H](C)C(=O)O; Ac5c = NC1(C(=O)O)CCCC1; Aze = O=C(O)[C@@H]1CCN1; Ac4c = NC1(C(=O)O)CCC1; Ac3c = NC1(C(=O)O)CC1; Sar = CNCC(=O)O

Key:
HRAS wild-type protein = HRAS wild-type protein (Homo sapiens, UniProt P01112); experiment: Binding to HRAS by surface plasmon resonance (SPR), KD and KD ratio to KRAS
Summary of the method: (§1)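 Running buffer contained 10 µM GDP and 10 mM MgCl2 to keep RAS in the GDP state, with 4% DMSO at pH 7.4. Compounds were flowed at 100 µL/min in 75 s steps of rising concentration over captured biotin-Avi RAS at 30°C. Sensorgrams were fitted 1:1 for KD.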

[1] = target: GDP-bound NRAS wild-type protein (Homo sapiens, UniProt P01111); experiment: Binding to NRAS by surface plasmon resonance (SPR), KD and KD ratio to KRAS
Summary of the method: as §1

[2] = test system: human lung cancer strain NCI-H441; format: cell-based
Summary of the method: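 Step one: dispense the test compound in serial DMSO dilutions. Step three: add the reagent and measure […].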

[3] = ratio of the KD value with respect to HRAS wild-type protein to the KD value with respect to KRAS
[4] = ratio of the KD value with respect to GDP-bound NRAS wild-type protein to the KD value with respect to KRAS
[5] = ratio of KD for HRAS wild-type protein to KD for KRAS
[6] = ratio of KD for GDP-bound NRAS wild-type protein to KD for KRAS
[7] = ratio of KD value for HRAS wild-type protein to KD value for KRAS (SPR)
[8] = ratio of KD value for GDP-bound NRAS wild-type protein to KD value for KRAS (SPR)

Sequence of HRAS wild-type protein (P01112 whole entry): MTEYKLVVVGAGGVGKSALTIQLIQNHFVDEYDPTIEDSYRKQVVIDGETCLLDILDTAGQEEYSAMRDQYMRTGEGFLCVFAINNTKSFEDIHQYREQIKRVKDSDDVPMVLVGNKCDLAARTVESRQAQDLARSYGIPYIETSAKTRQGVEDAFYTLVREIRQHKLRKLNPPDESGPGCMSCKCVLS
Sequence of GDP-bound NRAS wild-type protein (P01111 whole entry): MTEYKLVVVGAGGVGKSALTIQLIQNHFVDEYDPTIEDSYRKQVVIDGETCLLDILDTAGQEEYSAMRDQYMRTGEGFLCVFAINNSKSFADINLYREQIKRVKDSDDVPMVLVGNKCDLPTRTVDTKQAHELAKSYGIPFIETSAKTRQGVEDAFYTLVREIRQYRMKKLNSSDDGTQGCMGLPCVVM

IC50 [2] | SMILES | HRAS /KRAS (HRAS wild-type protein; [3]) | NRAS /KRAS [1, 4] | HRAS /KRAS (HRAS wild-type protein; [5]) | NRAS /KRAS [1, 6] | HRAS /KRAS (HRAS wild-type protein; [7]) | NRAS /KRAS [1, 8]
4.4 nM | CCC[C@H]1C(=O)N[C@@H]([C@@H](C)CC)C(=O)N(C)[C@@H](C)C(=O)N2CC[C@H]2C(=O)N(CCC)[C@@H](Cc2ccc(C(F)(F)F)cc2)C(=O)N(C)CC(=O)N[C@@H](CCc2ccc(C(F)(F)F)c(Cl)c2)C(=O)N2CCC[C@H]2C(=O)NC2(CCC2)C(=O)N(C)[C@@H](C2CCCC2)C(=O)N(CC)[C@H](C(=O)N2CCOCC2)CC(=O)N1C [PP1955] ([NMeNva]I[NMeA][Aze][NPrPhe(4-CF3)][Sar][hPhe(3-Cl-4-CF3)]P[Ac4c][NMeGly(cPent)][NEtAsp]-Morpholide; lactam N-11) | B (a compound having 3 or more and less than 10 is denoted as B) | C (A compound having a KD ratio of 0.1 or more and less than 3 is denoted as C) | – | – | – | –
478 nM | CCCN1C(=O)CN(C)C(=O)[C@@H]2CCN2C(=O)[C@H]([C@@H](C)CC)NC(=O)[C@H](CC(C)C)N(C)C(=O)C[C@@H](C(=O)N2CCOCC2)N(C)C(=O)[C@H](C2CCCC2)N(C)C(=O)[C@](C)([C@@H](C)CC)NC(=O)[C@@H]2CCCN2C(=O)[C@H](CCc2cc(F)c(C(F)(F)F)c(F)c2)NC(=O)CN(C)C(=O)[C@@H]1Cc1ccc(C(F)(F)F)cc1 [PP0774] ([NMeL]I[Aze][Sar][NPrPhe(4-CF3)][Sar][hPhe(3,5-F2-4-CF3)]P[αMeI][NMeGly(cPent)][NMeD]-Morpholide; lactam N-11) | – | – | B (a compound having 3 or more and less than 10 is denoted as B) | B (a compound having 3 or more and less than 10 is denoted as B) | – | –
8.5 nM | CCCC[C@H]1C(=O)N[C@@H]([C@@H](C)CC)C(=O)N(C)CC(=O)N(C)[C@H]2C/C=C\CCN(C2=O)[C@@H](Cc2ccc(C)cc2)C(=O)N(C)CC(=O)N[C@@H](CCc2cc(F)c(C(F)(F)F)c(F)c2)C(=O)N2C[C@H](OCC)C[C@H]2C(=O)NC2(CCC2)C(=O)N(C)[C@@H](C2CCCC2)C(=O)N(C)[C@H](C(=O)N(C)C)CC(=O)N1C [PP2798] | – | – | A (a compound having 10 or more and less than 20 is denoted as A) | A (a compound having 10 or more and less than 20 is denoted as A) | – | –
525 nM | CC[C@H](C)[C@@H]1NC(=O)[C@H](CC(C)C)N(C)C(=O)C[C@@H](C(=O)N2CCOCC2)N(C)C(=O)[C@H](C2CCCC2)N(C)C(=O)C2(CCCC2)NC(=O)[C@@H]2CCCN2C(=O)[C@H](CCc2cc(F)c(C(F)(F)F)c(F)c2)NC(=O)CN(C)C(=O)[C@H](Cc2ccc(C(F)(F)F)cc2)N2CCCCC[C@@H](C2=O)N(C)C(=O)CN(CC)C1=O [PP0483] | B (a compound having 3 or more and less than 10 is denoted as B) | B (a compound having 3 or more and less than 10 is denoted as B) | – | – | – | –
34.8 nM | CC[C@H](C)[C@@H]1NC(=O)[C@H](C)N(C)C(=O)C[C@@H](C(=O)N(C)C)N(C)C(=O)[C@H](C2CCCC2)N(C)C(=O)C2(CCC2)NC(=O)[C@@H]2CC(F)(F)CN2C(=O)[C@H](CCc2cc(F)c(C(F)(F)F)c(F)c2)NC(=O)CN(C)C(=O)[C@H](Cc2ccc(C(F)(F)F)cc2)N2CC/C=C\C[C@@H](C2=O)N(C)C(=O)CN(C)C1=O [PP1103] | – | – | B (a compound having 3 or more and less than 10 is denoted as B) | A (a compound having 10 or more and less than 20 is denoted as A) | – | –
7.5 nM | CC[C@H](C)[C@@H]1NC(=O)[C@H](CC2CC2)N(C)C(=O)C[C@@H](C(=O)N(C)CC)N(C)C(=O)[C@H](C2CCCC2)N(C)C(=O)C2(CCC2)NC(=O)[C@@H]2CC(F)(F)CN2C(=O)[C@H](CCc2cc(F)c(C(F)(F)F)c(F)c2)NC(=O)CN(C)C(=O)[C@H](Cc2ccc(C(F)(F)F)cc2)N2CC/C=C\C[C@@H](C2=O)N(C)C(=O)CN(C)C1=O [PP1538] | – | – | – | – | B (a compound having 3 or more and less than 10 is denoted as B) | A (a compound having 10 or more and less than 20 is denoted as A)
7.7 nM | CC[C@H](C)[C@@H]1NC(=O)[C@H](CC(C)C)N(C)C(=O)C[C@@H](C(=O)N2CCOCC2)N(C)C(=O)[C@H](C2CCCC2)N(C)C(=O)C2(CC2)NC(=O)[C@@H]2CCCN2C(=O)[C@H](CCc2ccc(C(F)(F)F)c(Cl)c2)NC(=O)CN(C)C(=O)[C@H](Cc2ccc(C(F)(F)F)cc2)N(CC)C(=O)[C@@H]2CCN2C(=O)[C@H](C)N(C)C1=O [PP0220] ([NMeL]I[NMeA][Aze][NEtPhe(4-CF3)][Sar][hPhe(3-Cl-4-CF3)]P[Ac3c][NMeGly(cPent)][NMeD]-Morpholide; lactam N-11) | – | – | C (A compound having a KD ratio of 0.1 or more and less than 3 is denoted as C) | C (A compound having a KD ratio of 0.1 or more and less than 3 is denoted as C) | – | –
13.9 nM | CCC(CC)[C@H]1C(=O)N(C)[C@H](C(=O)N(C)C)CC(=O)N(C)[C@@H](COC)C(=O)N[C@@H]([C@@H](C)CC)C(=O)N(C)CC(=O)N(C)[C@H]2C/C=C\CCN(C2=O)[C@@H](Cc2ccc(C(F)(F)F)cc2)C(=O)N(C)CC(=O)N[C@@H](CCc2cc(F)c(C(F)(F)F)c(F)c2)C(=O)N2CC3(CC3)C[C@H]2C(=O)NC2(CC(C)(C)C2)C(=O)N1C [PP2961] | – | – | A (a compound having 10 or more and less than 20 is denoted as A) | AA (a compound having 20 or more is denoted as AA) | – | –
311 nM | CC[C@H](C)[C@@H]1NC(=O)[C@H](CC(C)C)N(C)C(=O)C[C@@H](C(=O)N(C)C)N(C)C(=O)[C@H](C2CCCC2)N(C)C(=O)C2(CCCC2)NC(=O)[C@@H]2CCCN2C(=O)[C@H](CCc2cc(F)c(C(F)(F)F)c(F)c2)NC(=O)CN(C)C(=O)[C@H](Cc2ccc(C(F)(F)F)cc2)N2CCCCC[C@@H](C2=O)N(C)C(=O)CN(CC)C1=O [PP0514] | B (a compound having 3 or more and less than 10 is denoted as B) | B (a compound having 3 or more and less than 10 is denoted as B) | – | – | – | –
3.7 nM | CCCN1C(=O)[C@@H]2CCN2C(=O)[C@H](C)N(C)C(=O)[C@H]([C@@H](C)CC)NC(=O)[C@H](CC(C)C)N(C)C(=O)C[C@@H](C(=O)N2CCOCC2)N(C)C(=O)[C@H](C2CCCC2)N(C)C(=O)C2(CCCC2)NC(=O)[C@@H]2CC(F)(F)CN2C(=O)[C@H](CCc2ccc(C(F)(F)F)c(Cl)c2)NC(=O)CN(C)C(=O)[C@@H]1Cc1ccc(C(F)(F)F)cc1 [PP0196] ([NMeL]I[NMeA][Aze][NPrPhe(4-CF3)][Sar][hPhe(3-Cl-4-CF3)][Pro(4,4-F2)][Ac5c][NMeGly(cPent)][NMeD]-Morpholide; lactam N-11) | – | – | C (A compound having a KD ratio of 0.1 or more and less than 3 is denoted as C) | C (A compound having a KD ratio of 0.1 or more and less than 3 is denoted as C) | – | –
1.8 nM | CC[C@H](C)[C@@H]1NC(=O)[C@H](CC(F)(F)F)N(C)C(=O)C[C@@H](C(=O)N(C)C)N(C)C(=O)[C@H](C2CCCC2)N(C)C(=O)C2(CC(C)(C)C2)NC(=O)[C@@H]2CCCN2C(=O)[C@H](CCc2cc(F)c(C(F)(F)F)c(F)c2)NC(=O)CN(C)C(=O)[C@H](Cc2ccc(C(F)(F)F)cc2)N2CC/C=C\C[C@@H](C2=O)N(C)C(=O)CN(C)C1=O [PP1722] | – | – | – | – | A (a compound having 10 or more and less than 20 is denoted as A) | AA (a compound having 20 or more is denoted as AA)
73.8 nM | CC[C@H](C)[C@@H]1NC(=O)[C@H](CC(C)C)N(C)C(=O)C[C@@H](C(=O)N(C)C)N(C)C(=O)[C@H](C2CCCC2)N(C)C(=O)C2(CCCC2)NC(=O)[C@@H]2CCCN2C(=O)[C@H](CCc2ccc(C(F)(F)F)c(Cl)c2)NC(=O)CN(C)C(=O)[C@H](Cc2ccc(C)cc2)N2CC/C=C(/C)C[C@@H](C2=O)N(C)C(=O)CN(C)C1=O [PP0616] | B (a compound having 3 or more and less than 10 is denoted as B) | B (a compound having 3 or more and less than 10 is denoted as B) | – | – | – | –
11.6 nM | CC[C@H](C)[C@@H]1NC(=O)[C@H](CC(C)C)N(C)C(=O)C[C@@H](C(=O)N(C)C)N(C)C(=O)[C@H](C2CCCC2)N(C)C(=O)C2(CCC2)NC(=O)[C@@H]2CC(F)(F)CN2C(=O)[C@H](CCc2ccc(C(F)(F)F)c(Cl)c2)NC(=O)CN(C)C(=O)[C@H](Cc2ccc(F)cc2)N2CCCCC[C@@H](C2=O)N(C)C(=O)CN(C)C1=O [PP0973] | – | – | B (a compound having 3 or more and less than 10 is denoted as B) | B (a compound having 3 or more and less than 10 is denoted as B) | – | –
18.7 nM | CCC[C@H]1C(=O)N[C@@H]([C@@H](C)CC)C(=O)N(C)CC(=O)N(C)[C@H]2C/C=C\CCN(C2=O)[C@@H](Cc2ccc(C(F)(F)F)cc2)C(=O)N(C)CC(=O)N[C@@H](CCc2ccc(C(F)(F)F)c(Cl)c2)C(=O)N2CC3(CC3)C[C@H]2C(=O)NC2(CC(C)(C)C2)C(=O)N(C)[C@@H]([C@@H](C)CC)C(=O)N(C)[C@H](C(=O)N(C)C)CC(=O)N1C [PP2983] | – | – | A (a compound having 10 or more and less than 20 is denoted as A) | AA (a compound having 20 or more is denoted as AA) | – | –
8.2 nM | CC[C@H](C)[C@@H]1NC(=O)[C@H](CC)N(C)C(=O)C[C@@H](C(=O)N(C)C)N(C)C(=O)[C@H](C2CCCC2)N(C)C(=O)C2(CCC2)N(C)C(=O)[C@@H]2CCCN2C(=O)[C@H](CCc2cc(F)c(C(F)(F)F)c(F)c2)NC(=O)CN(C)C(=O)[C@H](Cc2ccc(C(F)(F)F)cc2)N2CC/C=C\C[C@@H](C2=O)N(C)C(=O)CN(C)C1=O [PP1780] | – | – | – | – | A (a compound having 10 or more and less than 20 is denoted as A) | A (a compound having 10 or more and less than 20 is denoted as A)
